Consider 26 compounds from ChEMBL document CHEMBL1909046, “DrugMatrix in vitro pharmacology data”.

pIC50, pKi: −log10 of the molar value.

Usually pIC50 stands for −log10 of the IC50, conventionally taken in molar units. For orientation: pKi means the negative decadic logarithm of the Ki, by convention in mol/L.

Test [1] deals with T1, Alpha-1B adrenergic receptor (Rattus norvegicus, UniProt P15823).
T1 sequence (P15823 whole entry): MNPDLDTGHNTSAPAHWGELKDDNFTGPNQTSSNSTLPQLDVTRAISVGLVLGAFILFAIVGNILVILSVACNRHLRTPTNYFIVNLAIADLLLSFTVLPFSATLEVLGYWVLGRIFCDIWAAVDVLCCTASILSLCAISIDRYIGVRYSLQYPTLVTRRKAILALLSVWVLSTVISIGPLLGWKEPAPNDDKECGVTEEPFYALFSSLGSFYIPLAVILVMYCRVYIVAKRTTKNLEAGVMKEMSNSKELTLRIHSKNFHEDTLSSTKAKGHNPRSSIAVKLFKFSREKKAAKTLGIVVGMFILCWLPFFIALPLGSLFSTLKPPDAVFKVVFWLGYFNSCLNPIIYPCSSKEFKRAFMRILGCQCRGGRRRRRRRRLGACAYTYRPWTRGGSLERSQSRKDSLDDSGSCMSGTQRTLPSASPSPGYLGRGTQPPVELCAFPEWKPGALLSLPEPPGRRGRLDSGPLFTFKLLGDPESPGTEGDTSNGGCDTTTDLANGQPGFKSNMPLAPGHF
Description: DRUGMATRIX: Alpha-1B adrenergic receptor radioligand binding (ligand: prazosin). In kind it is cell membranes, Wistar, Liver, Membrane. The settings on record: Not Active = under 50% inhibition at 10 µM.

The next test has as its target Substance-P receptor (Homo sapiens, UniProt P25103). It counts as cell membranes, CHO, Membrane. The settings on record: cho. Note: in other assays of this panel Not Active means under 50% inhibition at 10 µM.
In test [2] the target is Vascular endothelial growth factor receptor 1 (Homo sapiens, UniProt P17948). In kind it is cell-based. The following applies: huvec. Note: in other assays of this panel Not Active means under 50% inhibition at 10 µM.
Another test deals with D(1A) dopamine receptor (Homo sapiens, UniProt P21728). The test can be described thus: DRUGMATRIX: Dopamine D1 radioligand binding (ligand: [3H] SCH-23390). In kind it is cell membranes, CHO, Membrane. The settings on record: Not Active = under 50% inhibition at 10 µM; for IC50: cho.
In test [3] the target is Delta-type opioid receptor (Homo sapiens, UniProt P41143). It counts as cell membranes, HEK293, Membrane. The settings on record: for IC50: hek293. For all read-outs here: in other assays of this panel Not Active means under 50% inhibition at 10 µM.
Test [4] addresses cGMP-specific 3',5'-cyclic phosphodiesterase (Homo sapiens, UniProt O76074). The test can be described thus: DRUGMATRIX: Phosphodiesterase PDE5 enzyme inhibition (substrate: [3H]cGMP + cGMP). The settings on record: platelet; Not Active = under 50% inhibition at 10 µM. It counts as tissue-based, Platelet.

Delta-type opioid receptor, sequence (P41143 whole entry): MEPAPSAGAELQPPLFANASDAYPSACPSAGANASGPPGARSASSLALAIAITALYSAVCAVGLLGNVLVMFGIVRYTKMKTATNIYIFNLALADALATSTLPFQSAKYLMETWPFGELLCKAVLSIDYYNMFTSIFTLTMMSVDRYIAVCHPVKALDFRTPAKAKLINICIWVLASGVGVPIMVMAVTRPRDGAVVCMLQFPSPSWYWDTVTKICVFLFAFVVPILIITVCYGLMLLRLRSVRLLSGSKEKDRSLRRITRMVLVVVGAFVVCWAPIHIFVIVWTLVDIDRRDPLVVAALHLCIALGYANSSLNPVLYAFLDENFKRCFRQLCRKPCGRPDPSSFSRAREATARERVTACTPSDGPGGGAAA
Vascular endothelial growth factor receptor 1, sequence (P17948 whole entry): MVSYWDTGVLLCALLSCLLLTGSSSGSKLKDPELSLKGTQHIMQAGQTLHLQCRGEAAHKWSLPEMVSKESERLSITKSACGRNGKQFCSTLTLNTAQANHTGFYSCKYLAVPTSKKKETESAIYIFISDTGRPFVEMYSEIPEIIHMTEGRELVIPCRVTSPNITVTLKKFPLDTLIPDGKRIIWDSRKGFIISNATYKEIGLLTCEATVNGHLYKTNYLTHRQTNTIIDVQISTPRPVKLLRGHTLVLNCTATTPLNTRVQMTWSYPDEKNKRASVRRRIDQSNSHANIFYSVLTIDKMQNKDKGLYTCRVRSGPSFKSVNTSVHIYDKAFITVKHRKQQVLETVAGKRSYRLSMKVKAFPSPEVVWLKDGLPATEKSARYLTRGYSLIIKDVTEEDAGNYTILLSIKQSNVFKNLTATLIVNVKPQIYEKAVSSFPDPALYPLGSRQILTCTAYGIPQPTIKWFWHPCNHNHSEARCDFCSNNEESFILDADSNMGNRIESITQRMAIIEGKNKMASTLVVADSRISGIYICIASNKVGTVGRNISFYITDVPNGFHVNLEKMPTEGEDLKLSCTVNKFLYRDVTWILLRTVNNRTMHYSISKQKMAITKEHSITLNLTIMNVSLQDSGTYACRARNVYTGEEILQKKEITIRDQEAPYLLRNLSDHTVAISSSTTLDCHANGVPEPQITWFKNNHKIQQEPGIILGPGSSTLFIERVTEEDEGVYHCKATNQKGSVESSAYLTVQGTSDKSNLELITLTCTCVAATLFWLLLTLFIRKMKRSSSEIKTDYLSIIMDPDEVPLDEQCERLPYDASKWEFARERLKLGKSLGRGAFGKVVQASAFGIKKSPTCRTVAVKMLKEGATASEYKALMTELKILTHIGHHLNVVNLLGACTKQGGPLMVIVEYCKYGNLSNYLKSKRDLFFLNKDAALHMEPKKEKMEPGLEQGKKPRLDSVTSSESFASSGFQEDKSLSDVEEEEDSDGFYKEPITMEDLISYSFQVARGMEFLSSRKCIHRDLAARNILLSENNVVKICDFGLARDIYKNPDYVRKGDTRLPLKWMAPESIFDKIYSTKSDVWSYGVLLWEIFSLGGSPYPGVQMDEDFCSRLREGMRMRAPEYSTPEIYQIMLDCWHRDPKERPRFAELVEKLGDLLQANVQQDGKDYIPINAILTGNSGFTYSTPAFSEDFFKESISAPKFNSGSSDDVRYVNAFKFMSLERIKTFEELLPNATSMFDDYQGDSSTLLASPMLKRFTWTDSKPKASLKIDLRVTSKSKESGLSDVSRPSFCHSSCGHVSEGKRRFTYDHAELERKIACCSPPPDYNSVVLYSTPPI
D(1A) dopamine receptor, sequence (P21728 whole entry): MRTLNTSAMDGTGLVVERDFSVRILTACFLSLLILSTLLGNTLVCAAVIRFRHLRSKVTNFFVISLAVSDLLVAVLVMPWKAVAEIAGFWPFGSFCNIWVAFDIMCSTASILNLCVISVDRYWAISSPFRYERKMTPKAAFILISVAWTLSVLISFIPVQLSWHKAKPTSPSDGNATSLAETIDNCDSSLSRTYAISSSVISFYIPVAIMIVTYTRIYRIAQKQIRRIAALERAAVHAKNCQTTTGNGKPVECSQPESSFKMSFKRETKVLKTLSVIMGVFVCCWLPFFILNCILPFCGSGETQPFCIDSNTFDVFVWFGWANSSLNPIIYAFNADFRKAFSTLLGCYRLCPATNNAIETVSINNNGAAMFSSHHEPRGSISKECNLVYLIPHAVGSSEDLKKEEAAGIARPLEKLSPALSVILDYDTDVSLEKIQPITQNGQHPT
Substance-P receptor, sequence (P25103 whole entry): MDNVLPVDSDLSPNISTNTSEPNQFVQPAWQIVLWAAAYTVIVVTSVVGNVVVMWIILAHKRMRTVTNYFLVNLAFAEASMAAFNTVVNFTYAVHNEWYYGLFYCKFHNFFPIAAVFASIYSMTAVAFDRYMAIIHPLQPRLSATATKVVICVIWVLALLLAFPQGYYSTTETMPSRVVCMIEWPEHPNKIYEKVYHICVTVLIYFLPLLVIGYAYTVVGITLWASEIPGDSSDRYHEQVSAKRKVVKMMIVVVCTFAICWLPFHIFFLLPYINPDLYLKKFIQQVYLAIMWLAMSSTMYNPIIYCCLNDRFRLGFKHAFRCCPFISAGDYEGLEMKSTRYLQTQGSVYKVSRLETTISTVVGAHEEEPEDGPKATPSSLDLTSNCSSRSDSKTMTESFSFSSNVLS

With `CCOc1nc2cccc(C(=O)O)c2n1Cc1ccc(-c2ccccc2-c2nnn[nH]2)cc1`, the IC50 result (in test [1]; on Substance-P receptor; in test [2]; at D(1A) dopamine receptor; in test [3]; in test [4]) was “Not Active” throughout.

Take `O=C(O)CCCc1cccs1`: the IC50 result (in test [1]; at Substance-P receptor; in test [2]; at D(1A) dopamine receptor; in test [3]; in test [4]) was “Not Active” in each case.

Take `COc1ccccc1N`: the IC50 entry (in test [1]; at Substance-P receptor; in test [2]; on D(1A) dopamine receptor; in test [3]; in test [4]) was “Not Active” each time.

For `O=C(c1ccccc1F)N1CCC(Cc2ccccc2)CC1`, the IC50 entry (in test [1]; against Substance-P receptor; in test [2]; on D(1A) dopamine receptor; in test [3]; in test [4]) was “Not Active” throughout.

Consider `Cc1c(O)cccc1C(=O)N[C@@H](CSc1ccccc1)[C@H](O)CN1C[C@H]2CCCC[C@H]2C[C@H]1C(=O)NC(C)(C)C`, for which the IC50 entry (in test [1]; at Substance-P receptor; in test [2]; in test [4]) was “Not Active” in each case. For the same compound, the pIC50 in test [3] (read-out: IC50) was 4.18. In test [3] (read-out: Ki), the negative logarithm of the Ki (pKi) was 4.63.

Turning to `CC(O)COC[C@H]1O[C@@H]2O[C@H]3[C@H](O)[C@@H](O)[C@@H](O[C@H]4[C@H](O)[C@@H](O)[C@@H](O[C@H]5[C@H](O)[C@@H](O)[C@@H](O[C@H]6[C@H](O)[C@@H](O)[C@@H](O[C@H]7[C@H](O)[C@@H](O)[C@@H](O[C@H]8[C@H](O)[C@@H](O)[C@@H](O[C@H]1[C@H](O)[C@H]2O)O[C@@H]8COCC(C)O)O[C@@H]7COCC(C)O)O[C@@H]6COCC(C)O)O[C@@H]5COCC(C)O)O[C@@H]4COCC(C)O)O[C@@H]3COCC(C)O` (stereo partly drawn) [2-HYDROXYPROPYL-BETA-CYCLODEXTRIN], the IC50 entry (in test [1]; on Substance-P receptor; in test [2]; on D(1A) dopamine receptor; in test [3]; in test [4]) was “Not Active” each time.

With `NC(=O)c1cccc(N)c1` [3-AMINOBENZAMIDE], the IC50 result (in test [1]; against Substance-P receptor; in test [2]; on D(1A) dopamine receptor; in test [3]; in test [4]) was “Not Active” each time.

Take `C[C@H]1O[C@H](O[C@H]2[C@H](O)[C@@H](O)[C@@H](O[C@H]3[C@H](O)[C@@H](O)C(O)O[C@@H]3CO)O[C@@H]2CO)[C@H](O)[C@@H](O)[C@@H]1N[C@H]1C=C(CO)[C@@H](O)[C@H](O)[C@H]1O` (stereo partly drawn) [ACARBOSE]: the IC50 result (in test [1]; on Substance-P receptor; in test [2]; at D(1A) dopamine receptor; in test [3]; in test [4]) was “Not Active” throughout.

As for `CC[C@H]1[C@@H]2C[C@H]3[C@@H]4N(C)c5ccccc5[C@]45C[C@@H]([C@@H]2[C@H]5O)N3[C@@H]1O` [AJMALINE], the IC50 result (in test [1]; against Substance-P receptor; in test [2]; at D(1A) dopamine receptor; in test [3]; in test [4]) was “Not Active” each time.

As to `NC12CC3CC(CC(C3)C1)C2` [AMANTADINE], the IC50 result (in test [1]; against Substance-P receptor; in test [2]; on D(1A) dopamine receptor; in test [3]; in test [4]) was “Not Active” in each case.

In the case of `NCCCNCCSP(=O)(O)O` [AMIFOSTINE], the IC50 entry (in test [1]; at Substance-P receptor; in test [2]; at D(1A) dopamine receptor; in test [3]; in test [4]) was “Not Active” throughout.

As to `CN(C)CCC=C1c2ccccc2CCc2ccccc21` [AMITRIPTYLINE], the negative-log IC50 (pIC50) in test [1] (read-out: IC50) was 7.12; on D(1A) dopamine receptor (read-out: IC50) it was 6.45. The negative-log Ki (pKi) is 7.38 in test [1] (read-out: Ki) and 6.75 at D(1A) dopamine receptor (read-out: Ki). In addition, the IC50 result (against Substance-P receptor; in test [2]; in test [3]; in test [4]) was “Not Active” each time.

`CC(=O)Oc1ccccc1C(=O)O` [ASPIRIN]: the IC50 entry (in test [1]; on Substance-P receptor; in test [2]; at D(1A) dopamine receptor; in test [3]; in test [4]) was “Not Active” throughout.

Regarding `CC(C)c1c(C(=O)Nc2ccccc2)c(-c2ccccc2)c(-c2ccc(F)cc2)n1CC[C@@H](O)C[C@@H](O)CC(=O)O` [ATORVASTATIN], the IC50 entry (in test [1]; on Substance-P receptor; in test [2]; at D(1A) dopamine receptor; in test [3]; in test [4]) was “Not Active” each time.

Consider `CC(=O)OC[C@H]1O[C@@H](n2ncc(=O)[nH]c2=O)[C@H](OC(C)=O)[C@@H]1OC(C)=O` [AZARIBINE], for which the IC50 entry (in test [1]; at Substance-P receptor; in test [2]; on D(1A) dopamine receptor; in test [3]; in test [4]) was “Not Active” in each case.

Turning to `C[C@H]1[C@H](NC(=O)/C(=N\OC(C)(C)C(=O)O)c2csc(N)n2)C(=O)N1S(=O)(=O)O` [AZTREONAM], the IC50 result (in test [1]; on Substance-P receptor; in test [2]; at D(1A) dopamine receptor; in test [3]; in test [4]) was “Not Active” in each case.

With `O=C(O)CCNC(=O)c1ccc(/N=N/c2ccc(O)c(C(=O)O)c2)cc1` [BALSALAZIDE], the IC50 entry (in test [1]; on Substance-P receptor; in test [2]; on D(1A) dopamine receptor; in test [3]; in test [4]) was “Not Active” in each case.

For the compound `COc1cc(OC)c(C(=O)CCCN2CCCC2)c(OC)c1` [BUFLOMEDIL], the IC50 result (in test [1]; at Substance-P receptor; in test [2]; at D(1A) dopamine receptor; in test [3]; in test [4]) was “Not Active” in each case.

Take `Cn1c(=O)c2c(ncn2C)n(C)c1=O` [CAFFEINE]: the IC50 entry (in test [1]; at Substance-P receptor; in test [2]; on D(1A) dopamine receptor; in test [3]; in test [4]) was “Not Active” in each case.

`ClC(Cl)(Cl)Cl` [CARBON TETRACHLORIDE]: the IC50 entry (in test [1]; against Substance-P receptor; in test [2]; on D(1A) dopamine receptor; in test [3]; in test [4]) was “Not Active” throughout.

For `CO/N=C(\C(=O)N[C@@H]1C(=O)N2C(C(=O)O)=C(COC(C)=O)CS[C@H]12)c1csc(N)n1` [CEFOTAXIME], the IC50 result (in test [1]; against Substance-P receptor; in test [2]; at D(1A) dopamine receptor; in test [3]; in test [4]) was “Not Active” in each case.

For the compound `CNC1=Nc2ccc(Cl)cc2C(c2ccccc2)=[N+]([O-])C1` [CHLORDIAZEPOXIDE], the IC50 result (in test [1]; against Substance-P receptor; in test [2]; at D(1A) dopamine receptor; in test [3]; in test [4]) was “Not Active” in each case.

In the case of `Cc1cc(O)cc(C)c1Cl` [CHLOROXYLENOL], the IC50 entry (in test [1]; at Substance-P receptor; in test [2]; on D(1A) dopamine receptor; in test [3]; in test [4]) was “Not Active” throughout.

With `CCCNC(=O)NS(=O)(=O)c1ccc(Cl)cc1` [CHLORPROPAMIDE], the IC50 result (in test [1]; at Substance-P receptor; in test [2]; at D(1A) dopamine receptor; in test [3]; in test [4]) was “Not Active” throughout.

With `NS(=O)(=O)c1cc(C2(O)NC(=O)c3ccccc32)ccc1Cl` (stereo not drawn) [CHLORTHALIDONE], the IC50 result (in test [1]; at Substance-P receptor; in test [2]; on D(1A) dopamine receptor; in test [3]; in test [4]) was “Not Active” each time.

Turning to `O=C(O)CC(O)(CC(=O)O)C(=O)O` [CITRIC ACID], the IC50 result (in test [1]; against Substance-P receptor; in test [2]; on D(1A) dopamine receptor; in test [3]; in test [4]) was “Not Active” in each case.
